Reference: PMC8179358, “An explicitly designed paratope of amyloid-β prevents neuronal apoptosis in vitro and hippocampal damage in rat brain” (Chemical Science, 2020)
*1 amine or outer side, *2 acyl side, *3 side chain or, on linkers, in order; H or OH if unused. Where a SMILES comes first, the peptide text is derived from it. Bridges are numbered along the chain shown (N, C = ends). Roman numbers before positions name the chains, in order. [ ]: non-standard residue; d: D form. X1 = O=C(CCCCC(=O)[*:2])NCCCOCCOCCOCCCNC(=O)CCC(=O)[*:1]; NMeF = CN[C@@H](Cc1ccccc1)C(=O)O; NMeL = CN[C@@H](CC(C)C)C(=O)O; NMeV = CN[C@H](C(=O)O)C(C)C

Key:
[1] = test system: SH-SY5Y cells; assay: Intracellular Ca2+ (Fura-2AM); format: cell-based, human; conditions: Aβ40 10 μM, compared to untreated cells
Description: Condensed or fragmented nuclear bodies characterize the distinctive nature of apoptotic cells. […] Dyshomeostasis of Ca^2+ is also responsible for the increased production of Aβ peptides, by which a degenerative feed-forward cycle is activated, resulting in accelerated apoptosis, synaptic dysfunction, and memory impairment.[49] […]
e. Measurement of intracellular calcium (Ca 2+)
Ca2+sensitive dye Fura-2AM was used to measure free intracellular Ca2+level in SH-SY5Y cell suspension by the previously described method.12 Following treatment with the respective drug, Fura-2 AM (Cayman, USA) at a concentration of 5 µM was added to the culture medium and incubated at 37°C for 45 min. Next, Krebs-Ringer-HEPES (KRH) buffer (135mM NaCl, 5mM KCl, 1mM MgSO4, 0.4mM KH2PO4, 1mM CaCl2, 5.5mM glucose, 20mM HEPES, pH 7.4) was used to wash each plate twice containing (1×10^6cells). Fluorescent microplate reader (FLX 800, Biotek, USA) was used to measure the fluorescence intensity with an excitation and emission spectra of […], respectively. Results are Mean±SEM of quadruplicate measurements from three separate experiments and expressed in the increase in percent relative fluorescent unit (RFU) relative to the baseline reading.
Western blot analysis was performed to measure Bax, Bcl-2, cleaved Caspase 9 and cleaved Caspase 3, pro and anti-apoptotic proteins expression. […]

[2] = test system: SH-SY5Y cells; assay: MTT assay, self-toxicity of SP1; format: cell-based, human; conditions: 0.5-10 μM, 24 h
Protocol: 1.3. Methods for in vitro cell-based experiments
The human neuroblastoma cell line SH-SY5Y was obtained from the National Centre for Cell Science (NCCS, Pune, India). The cells were grown in DMEM, and Ham’s F12 nutrient mixture (DMEM/F12; 1:1) supplemented with 10% fetal bovine serum (FBS; Gibco, USA), 50 U/ml penicillin, 100 μg/ml streptomycin and incubated in a humidified atmosphere of 5% CO2 at 37°C. All experiments were carried […]
Each experiment was performed
Methylthiazol tetrazolium (MTT) reduction assay was used to measure the viability of cells.10 The SH-SY5Y cells were seeded at a density of 1.5 × 10^4 cells/well in a 96 well plate. To assess self-toxicity, cells […]
period 20µl of MTT reagent (5mg/ml in DPBS) was added to each well and incubated in a humidified atmosphere of 5% CO2 at 37°C for 4h. Formazan crystals (purple) are formed by the metabolically active cells by cleaving the yellow tetrazolium salt. After the incubation period, the MTT solution was aspirated, and 150µL of dimethyl sulfoxide (DMSO) was added to each well to dissolve the formazan precipitate.

[3] = test system: liver and kidney tissue; assay: Sub-chronic toxicity, histopathology of liver and kidney; format: in vivo, Sprague-Dawley rats; conditions: 100 and 500 μg kg−1, tail vein, once daily, 42 days, n = 8/group
Protocol: The tabulated biochemical profile (novel biomarkers of the liver and kidney) corroborates the safety charms of SP1 for further in vivo studies.
24 male Sprague Dawley rats were randomly divided into three groups: control, SP1A, and SP1B. Each group contains 8 animals and administration of SP1was performed for 42 days through a tail vein by the following schedule: Control: Without any treatment.
Rats were sacrificed after 42 days of injection schedule and blood was collected for hematological and biochemical estimations. For the histopathological study, the liver and kidney were also isolated very carefully and checked for cytoarchitectural changes if any.
The body weights and volumes of SP1 to be administered were recorded for each animal. Prior to injection, the tail of the animal was warmed by using warm water circulating pad placed under the cage for 5-10 minutes to dilate the veins. A 25-gauge needle was inserted into the vein towards the direction of the head. The needle and syringe were kept parallel to the tail. […]
The biochemical parameters including blood glucose, serum urea, creatinine, total bilirubin, serum glutamic oxaloacetic transaminase (SGOT), serum glutamic pyruvic transaminase (SGPT), and alkaline phosphatase (ALP) were analyzed for sub-chronic toxicity of SP1by using commercially available diagnostic test kits (Crest Biosystems kits, India). […]

Row | Compound | intracellular Ca2+ level, Aβ40 alone [1] | cytotoxicity of SP1 alone [2] | cytoarchitectural changes in liver and kidney tissue [3]
1 | Aβ40: commercially available Aβ40 peptide | significantly elevated intracellular Ca^2+ levels |  | 
2 | CC(C)C[C@H](NC(=O)CNC(=O)CCC(=O)NCCCOCCOCCOCCCNC(=O)CCCCC(=O)NCC(=O)N(C)[C@@H](CC(C)C)C(=O)N[C@H](C(=O)N(C)[C@@H](Cc1ccccc1)C(=O)N[C@@H](Cc1ccccc1)C(=O)N[C@@H](C)C(N)=O)C(C)C)C(=O)N(C)[C@H](C(=O)N[C@@H](Cc1ccccc1)C(=O)N(C)[C@@H](Cc1ccccc1)C(=O)N[C@@H](C)C(N)=O)C(C)C [SP1] (I: GL[NMeV]F[NMeF]A-NH2 / II: G[NMeL]V[NMeF]FA-NH2; linker I:N-II:N via X1) |  | did not observe any discernible cytotoxicity even at the maximum concentrations (10 μM) | did not observe any cytoarchitectural changes in the liver and kidney tissue
